Assay [1] deals with Enterococcus faecalis. Kind of assay: MIC, broth microdilution (Example 1). It counts as cell-based. Here is the method:
(§1) Stock solutions of all antibacterial agents were prepared at 80-fold (80×) the final target concentration in the appropriate solvent and the solution was allowed to stand for 60 minutes. All antibacterial agents were in solution under these conditions. The final drug concentrations in the FIC assay plates were set to bracket the MIC value of each agent for each test organism, unless the strain was totally resistant to the test agent.
(§2) The test organisms were originally received from clinical sources, or from the American Type Culture Collection. Upon receipt, the isolates were streaked onto the appropriate growth medium: Chocolate Agar for H. influenzae, Tryptic Soy Agar II (Becton Dickinson, Sparks, Md.) supplemented with 5% defibrinated sheep blood for streptococci, and unsupplemented Tryptic Soy Agar II for all other organisms. Colonies were harvested from these plates and a cell suspension was prepared in Tryptic Soy Broth (Becton Dickinson) containing cryoprotectant. Aliquots were then frozen at −80° C. On the day prior to assay, the frozen seeds of the organisms to be tested in that session were thawed and streaked for isolation onto the appropriate agar medium plates and incubated overnight at 35° C.
(§3) The test medium for H. influenzae was Haemophilus Test Medium. Streptococci were tested in Mueller Hinton II Broth (Becton Dickinson; Lot 6235472) supplemented with 2% lysed horse blood (Cleveland Scientific, Bath, Ohio; Lot H88621). All other organisms were tested in Mueller Hinton II Broth (Becton Dickinson, Lot 6235472). The broth was prepared at 1.05× normal weight/volume to offset the 5% volume of the drugs in the final test plates.
(§4) In order to select the proper test concentrations for each drug combination, minimal inhibitory concentration (MIC) values were first determined using the broth microdilution method previously described (Clinical and Laboratory Standards Institute. Methods for Dilution Antimicrobial Susceptibility Tests for Bacteria That Grow Aerobically; Approved Standard—Seventh Edition. Clinical and Laboratory Standards Institute document M7-A7 [ISBN 1-56238-587-9]. Clinical and Laboratory Standards Institute, 940 West Valley Road, Suite 1400, Wayne, Pa. 19087-1898 USA, 2006).
(§5) The wells of standard 96-well microdilution plates (Falcon 3918) were filled with 150 μL of 100% DMSO using the Multidrop 384. These plates were used to prepare the drug “mother plates” which provided the serial drug dilutions for the drug combination plates. The Biomek 2000 was used to transfer 150 μl of each stock solution (80×) from the wells in Column 1 of a deep well plate to the corresponding wells in Column 1 of the mother plate and to make seven 2-fold serial dilutions. Two mother plates, one for each drug, were combined to form a “checkerboard” pattern by transfer of equal volumes (using a multi-channel pipette) to the drug combination plate. Row H and Column 8 each contained serial dilutions of one of the agents alone for determination of the MIC.
(§6) Plates were stacked 3 high, covered with a lid on the top plate, placed in plastic bags, and incubated at 35° C. for approximately 20 hours. Following incubation, the microplates were removed from the incubator and viewed from the bottom using a ScienceWare plate viewer. Prepared reading sheets were marked for the MIC of drug 1 (row H), the MIC of drug 2 (column 8) and the wells of the growth-no growth interface.
On the technique in general: Dilution methods test growth across graded concentrations, often in twofold steps.

Assay [2] deals with Staphylococcus aureus. Kind of assay: MIC, broth microdilution (Example 1). Type of assay: cell-based. Here is the method: as §1, §2, §3, §4, §5, §6
For assay [3], the system named is Streptococcus pyogenes. Put plainly: MIC, broth microdilution (Example 1). It counts as cell-based. Here is the method: as §1, §2, §3, §4, §5, §6
In assay [4] the test system is HA-MRSA. Put plainly: Susceptibility testing MIC/MBC, broth microdilution (Example 3). The conditions noted are these: 200 HA-MRSA isolates; for MIC50 / MIC90: Staphylococcus aureus; for MIC50: MRSA, read-out: MIC50; for MIC90: read-out: MIC90. It counts as cell-based, Staphylococcus aureus. Here is the method: Two hundred clinical HA-MRSA isolates, harboring the SCCmecIV type, were evaluated for susceptibility testing. […] Four strains, including 1 hVISA and 1 VISA, characterized by population analysis profile and Macro Etest were selected for time-kill analysis.
Trypose soy agar (TSA; Difco, Detroit, Mich.) was used for colony counting.
Minimum inhibitory concentrations (MIC) and minimum bactericidal concentrations (MBC) were determined by broth microdilution for all antimicrobials, according to the Clinical and Laboratory Standards Institute (CLSI) guidelines (Clinical and Laboratory Standards Institute. 2006. Methods for Dilution Antimicrobial Susceptibility Tests for Bacteria That Grow Aerobically; Approved Standard. 7th ed. Wayne, Pa.: CLSI). MBC values were determined by plating of aliquots of 5 μL from clear wells onto TSA. All susceptibility testing were performed in duplicate.

The test system of assay [5] is Haemophilus influenzae. Kind of assay: MIC, broth microdilution (Example 1). Type of assay: cell-based. As to conditions: Haemophilus influenzae, read-out: MIC. Here is the method:
as §1, §2, §3, §4, §5, §6

Assay [6] relates to Streptococcus pneumoniae. Put plainly: MIC, broth microdilution (Example 1). It counts as cell-based. Here is the method:
as §1, §2, §3, §4, §5, §6

Where [7] appears, read: Enterococcus faecalis, E. faecalis 0795 (VSE), read-out: MIC.
The mark [8] stands for this setting: Enterococcus faecalis, E. faecalis 0796 (VSE), read-out: MIC.
The mark [9] stands for this setting: Staphylococcus aureus, MRSA, S. aureus 0765 (MRSA), read-out: MIC.
[10] abbreviates: Staphylococcus aureus, MRSA, S. aureus 2053 (MRSA), read-out: MIC.
[11] abbreviates: Staphylococcus aureus, MSSA, S. aureus 0753 (MSSA), read-out: MIC.
[12] abbreviates: Staphylococcus aureus, MSSA, S. aureus 2063 (MSSA), read-out: MIC.
Setting [13] is: Streptococcus pyogenes, S. pyogenes 0717, read-out: MIC.
[14] abbreviates: Streptococcus pyogenes, S. pyogenes 0722, read-out: MIC.

Here are results for four molecules from patent publication US20100197650A1, “COMPOSITIONS AND METHODS OF TREATMENT COMPRISING CEFTAROLINE” (FOREST LABORATORIES HOLDINGS LTD., priority 2008, published 2010).

SMILES strings stand for the structures. In brackets after ≈: the same amount, converted by molar mass. Several values for one entry are separate records, joined by “and”; a condition that tells them apart may be missing. Identical values can stand only once. Like-named read-outs stand apart in the source and are kept apart here.

Broadly, the MIC50 is the lowest concentration that inhibits either 50% of growth or 50% of the strains tested, depending on the study. The term MIC90 denotes an inhibitory concentration at the 90% level, which refers to growth in some studies and to a panel of isolates in others. As to `CCCCCCCCCC(=O)N[C@@H](Cc1c[nH]c2ccccc12)C(=O)N[C@H](CC(N)=O)C(=O)N[C@@H](CC(=O)O)C(=O)N[C@@H]1C(=O)NCC(=O)N[C@@H](CCCN)C(=O)N[C@@H](CC(=O)O)C(=O)N[C@H](C)C(=O)N[C@@H](CC(=O)O)C(=O)NCC(=O)N[C@H](CO)C(=O)N[C@@H]([C@H](C)CC(=O)O)C(=O)N[C@@H](CC(=O)c2ccccc2N)C(=O)O[C@@H]1C` [Daptomycin], the MIC in assay [1] (setting [7]) is 1 µg/mL. Also, in assay [1] (setting [8]), the MIC was found to be 2 µg/mL. Besides, in assay [2] (setting [9]), the MIC came out at 0.5 µg/mL. The MIC in assay [2] (setting [10]) was found to be 0.5 µg/mL. Also, the MIC in assay [2] (setting [11]) amounted to 0.5 µg/mL. In addition, the MIC in assay [2] (setting [12]) is 1 µg/mL. Besides, the MIC in assay [3] (S. pyogenes 0717) is 0.06 µg/mL. Besides, in assay [3] (setting [13]), the MIC was determined as 0.05 µg/mL. Moreover, the MIC in assay [3] (setting [14]) stood at 0.06 µg/mL. For the same molecule, in assay [4], the “% of Isolates with MBC 0.25 μg/mL” value is 47.5%, the “% of Isolates with MBC 0.5 μg/mL” value was found to be 35%, the “% of Isolates with MBC 1 μg/mL” value was determined as 5% and the “% of Isolates with MBC 2 μg/mL” value was determined as 2.5%. For the same molecule, in assay [4], the “% of Isolates with MBC […]” value was 9.5%, the “% of Isolates with MBC ≧4 μg/mL” value worked out at 0.5%, the “% of Isolates with MIC 0.25 μg/mL” value was determined as 58.5% and the “% of Isolates with MIC 0.5 μg/mL” value was 20.5%. For the same molecule, in assay [4], the “% of Isolates with MIC 1 μg/mL” value is reported as 1%, the “% of Isolates with MIC […]” value is given as 19.5%, the “% of Isolates with MIC ≧4 μg/mL” value is given as 0.5% and the “MBC range” value was in the range of 0.125 to 4 µg/mL. For the same molecule, in assay [4], the “MIC range” value lay within 0.125 to 4 µg/mL, the MIC50 turned out to be 0.25 µg/mL (≈ 0.154 µM) and the MIC90 was 0.5 µg/mL (≈ 0.309 µM).
Consider `CC[C@H]1OC(=O)[C@H](C)[C@@H](O[C@H]2C[C@@](C)(OC)[C@@H](O)[C@H](C)O2)[C@H](C)[C@@H](O[C@@H]2O[C@H](C)C[C@H](N(C)C)[C@H]2O)[C@](C)(O)C[C@@H](C)CN(C)[C@H](C)[C@@H](O)[C@]1(C)O` [Azithromycin], for which the MIC was 1 µg/mL in assay [5] (H. influenzae 1224); 1 µg/mL in assay [5] (H. influenzae 2797 (BLNAR)); 2 µg/mL in assay [5] (H. influenzae 2798 (BLNAR)); 0.25 µg/mL in assay [5] (H. influenzae 2799 (BLNAR)); >32^a^ μg/mL in assay [6] (S. pneumoniae 0877 (PRSP)); 2 µg/mL in assay [6] (Streptococcus pneumoniae, PRSP, S. pneumoniae 0876 (PRSP), read-out: MIC). Also, the MIC in assay [6] (Streptococcus pneumoniae, PRSP, S. pneumoniae 0877 (PRSP), read-out: MIC) was above 32 µg/mL; in assay [6] (Streptococcus pneumoniae, S. pneumoniae 0866 (PSSP), read-out: MIC) it was 0.06 µg/mL; in assay [6] (Streptococcus pneumoniae, S. pneumoniae 0869 (PSSP), read-out: MIC) it was 0.06 µg/mL.
For the molecule `CC(=O)NC[C@H]1CN(c2ccc(N3CCOCC3)c(F)c2)C(=O)O1` [Linezolid], in assay [1] (setting [7]), the MIC is 2 µg/mL. Also, the MIC in assay [1] (setting [8]) amounted to 4 µg/mL. Also, the MIC in assay [1] (Enterococcus faecalis, VRE, E. faecalis 0847 (VRE), read-out: MIC) was 2 µg/mL. In addition, the MIC in assay [1] (Enterococcus faecalis, VRE, E. faecalis 0849 (VRE), read-out: MIC) is 2 µg/mL. Moreover, in assay [2] (setting [9]), the MIC worked out at 4 µg/mL. The MIC in assay [2] (setting [10]) worked out at 2 µg/mL. Further, the MIC in assay [2] (setting [11]) was 4 µg/mL. Besides, the MIC in assay [2] (setting [12]) was determined as 4 µg/mL. Besides, in assay [3] (setting [13]), the MIC was 1 µg/mL. The MIC in assay [3] (setting [14]) stood at 1 µg/mL. Besides, in assay [4], the “% of Isolates with MBC 0.5 μg/mL” value was 1.5%, the “% of Isolates with MBC 1 μg/mL” value turned out to be 12%, the “% of Isolates with MBC 2 μg/mL” value is on record as 13.5% and the “% of Isolates with MBC ≧4 μg/mL” value is on record as 73%. In addition, in assay [4], the “% of Isolates with MIC 0.25 μg/mL” value came out at 9.5%, the “% of Isolates with MIC 0.5 μg/mL” value is 16%, the “% of Isolates with MIC 1 μg/mL” value is 15.5% and the “% of Isolates with MIC 2 μg/mL” value is 47.5%. Moreover, in assay [4], the “% of Isolates with MIC ≧4 μg/mL” value is 11.5%, the “MBC range” value was in the range of 0.5 to 64 µg/mL, the “MIC range” value lay in the range of 0.25 to 4 µg/mL and the MIC50 was found to be 2 µg/mL (≈ 5.93 µM). Besides, in assay [4], the MIC90 was determined as 4 µg/mL (≈ 11.9 µM).
With `O=C(O)c1cn(C2CC2)c2cc(N3CCNCC3)c(F)cc2c1=O` [Ciprofloxacin], the MIC in assay [1] (E. faecalis 0101 (ATCC 29212), FIC control) is 1 µg/mL and 0.5 µg/mL; in assay [1] (Enterococcus faecalis, ATCC29212, E. faecalis 0101 (ATCC 29212), FIC control, read-out: MIC), 0.5 to 1 µg/mL; in assay [2] (S. aureus 0100 (ATCC 29213), FIC control) it was 0.50 µg/mL and 0.25 µg/mL; in assay [2] (Staphylococcus aureus, ATCC29213, S. aureus 0100 (ATCC 29213), FIC control, read-out: MIC) it was 0.25 to 0.5 µg/mL.
